Test [1] relates to MV4-11 cells. The test is described as follows: Leukemia cell proliferation inhibition test (ATPlite), MV4-11. In kind it is cell-based. To be noted: Homo sapiens, read-out: MV4-11 cell proliferation inhibition effect. In short, it runs like this:
(§1)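 72 h proliferation, 37° C/5% CO2; 10,000 cells/well, RPMI/10% FBS; ATPlite luminescence (RLU); 0.1% DMSO taken as 0% inhibition; GI50 via sigmoid fit, n=2.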
In general terms: ATP-based viability assays read luminescence as a measure of living cells.

The target of test [2] is T1, human FLT3 protein (FLT3 (WT)) (Homo sapiens, UniProt P36888).
T1 construct: human FLT3 protein (intracellular region, 564 to 993 aa); GST; purchased Carna Biosciences; host or cells: baculovirus expression system
T1 sequence (P36888 564-993): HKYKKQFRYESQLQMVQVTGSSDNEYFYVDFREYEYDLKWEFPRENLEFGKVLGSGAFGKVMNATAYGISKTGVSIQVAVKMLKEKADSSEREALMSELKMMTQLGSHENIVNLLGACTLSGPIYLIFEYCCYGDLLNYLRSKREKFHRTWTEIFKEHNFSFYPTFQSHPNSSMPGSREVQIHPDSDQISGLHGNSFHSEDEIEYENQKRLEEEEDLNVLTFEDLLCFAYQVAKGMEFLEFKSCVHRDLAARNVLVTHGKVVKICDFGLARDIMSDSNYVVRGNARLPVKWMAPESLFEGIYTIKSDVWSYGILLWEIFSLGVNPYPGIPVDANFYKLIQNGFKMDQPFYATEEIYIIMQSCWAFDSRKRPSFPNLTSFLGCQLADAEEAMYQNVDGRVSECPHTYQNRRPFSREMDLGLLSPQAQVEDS
The test is described as follows: FLT3 inhibition test (FLT3 enzyme inhibition, time-resolved fluorescence of substrate peptide phosphorylation). To be noted: read-out: FLT3 (WT) enzyme inhibition activity. In kind it is biochemical. In short, it runs like this:
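Substrate peptide phosphorylation detected by time-resolved fluorescence after a 30 min kinase reaction at 25° C with 50 μM ATP (final). Beforehand, compound and FLT3 (WT, 1.2 μg) stood 15 min at 25° C in HEPES buffer pH 7.5 containing MgCl2, NaCl, BSA and DTT.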

The test system of test [3] is Molm-13 cells. Nature of the test: Leukemia cell proliferation inhibition test (ATPlite), Molm-13. In kind it is cell-based. To be noted: Homo sapiens, read-out: MOLM13 cell proliferation inhibition effect. In short, it runs like this:
as §1

Where [4] appears, read: MV4-11, 72 h, MV4-11, 72 hours culture, ATPlite, GI50 per method.
The mark [5] stands for this setting: GST-fused human FLT3 (564 to 993 aa), ATP 50 μM.
Setting [6] is: MOLM-13, 72 h, Molm-13, 72 hours culture, ATPlite, GI50 per method.

Like-named read-outs stand apart in the source and are kept apart here.

`CNc1nc(Nc2ccnc(OC)c2)ncc1C#CCCCNC(=O)[C@H](C)N(C)C(=O)/C=C/CN(C)C` [Compound 9-39]: the IC50 in test [1] (setting [4]), in test [2] (setting [5]) and in test [3] (setting [6]) was under 10 nM throughout.

`CCCNc1nc(Nc2ccc(C#N)cc2)ncc1C#CCCC(=O)NCCN(C)C(=O)/C=C/CN(C)C` [Compound 8-22]: the IC50 in test [1] (setting [4]) was 10 to 100 nM; in test [2] (setting [5]), under 10 nM; in test [3] (setting [6]), 10 to 100 nM.

`CCCNc1nc(Nc2cccc(F)c2)ncc1C#CCCC(=O)NCCN(C)C(=O)/C=C/CN(C)C` [Compound 8-21]: the IC50 in test [1] (setting [4]) is 100 to 1000 nM; in test [2] (setting [5]) it was 10 to 100 nM; in test [3] (setting [6]), 100 to 1000 nM.

Consider `CCCNc1nc(Nc2cccc(F)c2)ncc1C#CCCCNC(=O)[C@H](CCC)N(C)C(=O)/C=C/CN(C)C` [Compound 7-18], for which the values for the IC50 in test [1] (setting [4]), in test [2] (setting [5]) and in test [3] (setting [6]) were 10 to 100 nM, under 10 nM and 10 to 100 nM, respectively.

With `CCCNc1nc(Nc2ccc(C(=O)N(C)C)cc2)ncc1C#CCCCNC(=O)CN(C)C(=O)/C=C/CN(C)C` [Compound 7-16], the IC50 in test [1] (setting [4]) was under 10 nM; in test [2] (setting [5]), 10 to 100 nM; in test [3] (setting [6]), under 10 nM.

Take `CCCNc1nc(Nc2ccc(C(N)=O)cc2)ncc1C(=O)Nc1cccc(NC(=O)[C@H](C)N(C)C(=O)/C=C/CN2CC(O)C2)c1` [Compound 4-5]: the IC50 in test [1] (setting [4]), in test [2] (setting [5]) and in test [3] (setting [6]) was under 10 nM in each case.

For the molecule `CCCNc1nc(NCCc2ccncc2)ncc1C(=O)Nc1cccc(NC(=O)CNC(=O)/C=C/CN2CCN(C)CC2)c1` [Compound 2-14], the IC50 was 10 to 100 nM in test [1] (setting [4]), under 10 nM in test [2] (setting [5]) and 10 to 100 nM in test [3] (setting [6]).

In the case of `CCCNc1nc(NCCc2ccncc2)ncc1C(=O)Nc1cccc(NC(=O)[C@H](C)NC(=O)/C=C/CN(C)C)c1` [Compound 1-2, (S,E)-N-(3-(2-(4-(dimethylamino)-2-butenamido)propanamido)phenyl)-4-(propylamino)-2-((2-(pyridin-4-yl)ethyl)amino)pyrimidine-5-carboxamide], the IC50 in test [1] (setting [4]) is under 10 nM; in test [2] (setting [5]) it was under 10 nM; in test [3] (setting [6]), 10 to 100 nM.

Regarding `C[C@@H](C(=O)N[C@H]1C[C@@H](C#Cc2cnc(Nc3cccc(C#N)c3)nc2NC2CC2)C1)N(C)C(=O)/C=C/CN(C)C` [Compound 13-20, (E)-N—((S)-1-(((1S,3R)-3-((2-((3-Cyanophenyl)amino)-4-(cyclopropylamino)pyrimidin-5-yl)ethynyl)cyclobutyl)amino)-1-oxopropan-2-yl)-4-(dimethylamino)-N-methyl-2-butenamide], the IC50 in test [1] (setting [4]), in test [2] (setting [5]) and in test [3] (setting [6]) was under 10 nM in each case.

With `C[C@@H](C(=O)NCCCC#Cc1cnc(Nc2ccc(F)nc2)nc1N1CCOCC1)N(C)C(=O)/C=C/CN(C)C` [Compound 11-9], the IC50 in test [1] (setting [4]) is 10 to 100 nM; in test [2] (setting [5]), under 10 nM; in test [3] (setting [6]), 10 to 100 nM.

With `CCCNc1nc(Nc2ccc3nnccc3c2)ncc1C(=O)Nc1cccc(NC(=O)[C@H](C)N(C)C(=O)/C=C/CN(C)C)c1` [Compound 6-11, (S,E)-2-(Cinnolin-6-ylamino)-N-(3-(2-(4-(dimethylamino)-N-methyl-2-butenamido)propanamido)phenyl)-4-(propylamino)pyrimidine-5-carboxamide], the IC50 in test [1] (setting [4]), in test [2] (setting [5]) and in test [3] (setting [6]) was under 10 nM in each case.

Consider `CCCNc1nc(Nc2ccc3nc(C)ccc3c2)ncc1C#CCCCNC(=O)[C@H](C)N(C)C(=O)/C=C/CN(C)C` [Compound 22-5], for which the IC50 is 100 to 1000 nM in test [1] (MV4-11, MV4-11 cell); 10 to 100 nM in test [2] (FLT3 (WT)); 10 to 100 nM in test [3] (MOLM-13, MOLM13 cell).

Regarding `CCCNc1nc(Nc2ccc3c(cnn3C)c2)ncc1C#CCCCNC(=O)[C@H](C)N(C)C(=O)/C=C/CN(C)C` [Compound 21-6], the IC50 in test [1] (setting [4]), in test [2] (setting [5]) and in test [3] (setting [6]) was under 10 nM in each case.

As for `CCCNc1nc(Nc2ccc(C(N)=O)cc2)ncc1C(=O)Nc1cccc(NC(=O)[C@H](C)N(C)C(=O)/C=C/CN(C)C)c1` [Compound 3-1, (S,E)-2-((4-carbamoylphenyl)amino)-N-(3-(2-(4-(dimethylamino)-N-methyl-2-butenamido)propanamido)phenyl)-4-(propylamino)pyrimidine-5-carboxamide], the IC50 in test [1] (setting [4]), in test [2] (setting [5]) and in test [3] (setting [6]) was under 10 nM each time.

As for `CCCNc1nc(Nc2ccc(F)cc2)ncc1C#C[C@@H]1CCC[C@H](NC(=O)[C@H](C)N(C)C(=O)/C=C/CN(C)C)C1` [Compound 21-40], the IC50 is under 10 nM in test [1] (MV4-11, MV4-11 cell); under 10 nM in test [2] (FLT3 (WT)); under 10 nM in test [3] (MOLM-13, MOLM13 cell).

Consider `CCCNc1nc(Nc2ccc(C(N)=O)cc2)ncc1C(=O)Nc1cccc(NC(=O)[C@H](C)N(C)C(=O)/C=C/CN2CCNCC2)c1` [Compound 4-1, (S,E)-2-((4-carbamoylphenyl)amino)-N-(3-(2-(N-methyl-4-(piperazin-1-yl)-2-butenamido)propanamido)phenyl)-4-(propylamino)pyrimidine-5-carboxamide], for which the IC50 in test [1] (setting [4]) is 10 to 100 nM; in test [2] (setting [5]), under 10 nM; in test [3] (setting [6]), 10 to 100 nM.

In the case of `CCCNc1nc(Nc2ccc(C#N)cc2)ncc1C(=O)Nc1cccc(NC(=O)[C@H](C)N(C)C(=O)/C=C/CN(C)C)c1` [Compound 6-1, (S,E)-2-((4-cyanophenyl)amino)-N-(3-(2-(4-(dimethylamino)-N-methyl-2-butenamido)propanamido)phenyl)-4-(propylamino)pyrimidine-5-carboxamide], the IC50 was under 10 nM in test [1] (setting [4]), under 10 nM in test [2] (setting [5]) and 10 to 100 nM in test [3] (setting [6]).

Consider `CCCNc1nc(Nc2ccc3c(cnn3C)c2)ncc1C#CCCCNC(=O)[C@@H]1CCCN1C(=O)/C=C/CN(C)C` [Compound 22-31, (S,E)-1-(4-(Dimethylamino)-2-butenoyl)-N-(5-(2-((1-methyl-1H-indazol-5-yl)amino)-4-(propylamino)pyrimidin-5-yl)-4-pentyn-1-yl)pyrrolidine-2-carboxamide], for which the IC50 in test [1] (MV4-11, MV4-11 cell) was under 10 nM; in test [2] (FLT3 (WT)) it was under 10 nM; in test [3] (MOLM-13, MOLM13 cell), under 10 nM.

With `CCCNc1nc(Nc2ccc3nccnc3c2)ncc1C#CCCCNC(=O)[C@H](C)N(C)C(=O)/C=C/CN(C)C` [Compound 22-4], the IC50 in test [1] (MV4-11, MV4-11 cell) is under 10 nM; in test [2] (FLT3 (WT)), under 10 nM; in test [3] (MOLM-13, MOLM13 cell), under 10 nM.

In the case of `C[C@@H](C(=O)NCCCC#Cc1cnc(Nc2ccnc(F)c2)nc1NCCCF)N(C)C(=O)/C=C/CN(C)C` [Compound 9-17], the IC50 in test [1] (setting [4]), in test [2] (setting [5]) and in test [3] (setting [6]) was under 10 nM each time.

Consider `CCCNc1nc(Nc2ccc(C#N)cc2)ncc1C#CCCCNC(=O)[C@@H]1C[C@@H](OC)CN1C(=O)/C=C/CN(C)C` [Compound 7-60], for which the IC50 in test [1] (setting [4]), in test [2] (setting [5]) and in test [3] (setting [6]) was under 10 nM throughout.

In the case of `CCCNc1nc(Nc2cccc(Cl)c2)ncc1C#CCCCNC(=O)[C@H](C)N(C)C(=O)/C=C/CN(C)C` [Compound 12-2, (S,E)-N-(1-((5-(2-((3-chlorophenyl)amino)-4-(propylamino)pyrimidin-5-yl)-4-pentyn-1-yl)amino)-1-oxopropan-2-yl)-4-(dimethylamino)-N-methyl-2-butenamide], the IC50 was under 10 nM in test [1] (setting [4]), under 10 nM in test [2] (setting [5]) and 10 to 100 nM in test [3] (setting [6]).

As to `CCNc1nc(Nc2ccc3[nH]ncc3c2)ncc1C#CCCCNC(=O)[C@@H]1CCCN1C(=O)/C=C/CN(C)C` [Compound 10-67, (S,E)-N-(5-(2-((1H-Indazol-5-yl)amino)-4-(ethylamino)pyrimidin-5-yl)-4-pentyn-1-yl)-1-(4-(dimethylamino)-2-butenoyl)pyrrolidine-2-carboxamide], the IC50 in test [1] (setting [4]), in test [2] (setting [5]) and in test [3] (setting [6]) was under 10 nM each time.

Take `CCCNc1nc(Nc2cnc3c(c2)c(C)nn3CCOC)ncc1C#CCCCNC(=O)[C@H](C)N(C)C(=O)/C=C/CN(C)C` [Compound 22-41]: the IC50 in test [1] (MV4-11, MV4-11 cell) is under 10 nM; in test [2] (FLT3 (WT)), under 10 nM; in test [3] (MOLM-13, MOLM13 cell) it was under 10 nM.

As to `CCCNc1nc(Nc2ccc(C)cc2)ncc1C#CCCCNC(=O)[C@H](C)N(C)C(=O)/C=C/CN(C)C` [Compound 12-9], the IC50 in test [1] (setting [4]) is 10 to 100 nM; in test [2] (setting [5]), under 10 nM; in test [3] (setting [6]) it was 10 to 100 nM.

The record behind these values is patent US9145415B2, “Nitrogen-containing heterocyclic compound or salt thereof” (FUJIFILM Corporation, priority 2012, dated 2015).
